Experimental data: the NIST ThermoML archive (doi:10.1021/acs.jced.8b00201)

Assay: xn = mol fraction of the nth substance listed
Conditions: 100 kPa, Liquid; for viscosity: Concentric cylinders viscometry; for mass density: Vibrating tube method

O=C1CCCCC1 [cyclohexanone] + CCCCCO
Conditions | mass density [kg/m3] | viscosity [mPa·s]
293.15 K, x1 = 0.0803 | 825.1 | 3.57
293.15 K, x1 = 0.1609 | 835.7 | 3.16
293.15 K, x1 = 0.2403 | 846.2 | 2.8
293.15 K, x1 = 0.3473 | 860.4 | 2.41
293.15 K, x1 = 0.4404 | 872.7 | 2.17
293.15 K, x1 = 0.5619 | 889 | 1.96
293.15 K, x1 = 0.6501 | 900.9 | 1.88
293.15 K, x1 = 0.747 | 914 | 1.87
293.15 K, x1 = 0.8494 | 928 | 1.98
293.15 K, x1 = 0.9404 | 940.5 | 2.12
293.15 K, x1 = 1 | 948.8 | 2.3
298.15 K, x1 = 0.0803 | 821.1 | 3.1
298.15 K, x1 = 0.1609 | 831.6 | 2.77
298.15 K, x1 = 0.2403 | 841.9 | 2.49
298.15 K, x1 = 0.3473 | 855.8 | 2.15
298.15 K, x1 = 0.4404 | 868 | 1.96
298.15 K, x1 = 0.5619 | 884.1 | 1.8
298.15 K, x1 = 0.6501 | 895.8 | 1.74
298.15 K, x1 = 0.747 | 908.8 | 1.74
298.15 K, x1 = 0.8494 | 922.6 | 1.83
298.15 K, x1 = 0.9404 | 934.9 | 1.97
298.15 K, x1 = 1 | 943.1 | 2.09
303.15 K, x1 = 0.0803 | 817.3 | 2.71
303.15 K, x1 = 0.1609 | 827.6 | 2.44
303.15 K, x1 = 0.2403 | 837.8 | 2.2
303.15 K, x1 = 0.3473 | 851.6 | 1.94
303.15 K, x1 = 0.4404 | 863.7 | 1.77
303.15 K, x1 = 0.5619 | 879.6 | 1.63
303.15 K, x1 = 0.6501 | 891.2 | 1.58
303.15 K, x1 = 0.747 | 904.1 | 1.58
303.15 K, x1 = 0.8494 | 917.8 | 1.67
303.15 K, x1 = 0.9404 | 930.1 | 1.78
303.15 K, x1 = 1 | 938.2 | 1.91
308.15 K, x1 = 0.0803 | 813.4 | 2.38
308.15 K, x1 = 0.1609 | 823.6 | 2.14
308.15 K, x1 = 0.2403 | 833.7 | 1.95
308.15 K, x1 = 0.3473 | 847.4 | 1.73
308.15 K, x1 = 0.4404 | 859.5 | 1.6
308.15 K, x1 = 0.5619 | 875.3 | 1.49
308.15 K, x1 = 0.6501 | 886.8 | 1.46
308.15 K, x1 = 0.747 | 899.6 | 1.46
308.15 K, x1 = 0.8494 | 913.2 | 1.54
308.15 K, x1 = 0.9404 | 925.5 | 1.64
308.15 K, x1 = 1 | 933.5 | 1.75
313.15 K, x1 = 0.0803 | 809.6 | 2.08
313.15 K, x1 = 0.1609 | 819.7 | 1.9
313.15 K, x1 = 0.2403 | 829.8 | 1.73
313.15 K, x1 = 0.3473 | 843.4 | 1.54
313.15 K, x1 = 0.4404 | 855.3 | 1.43
313.15 K, x1 = 0.5619 | 871 | 1.34
313.15 K, x1 = 0.6501 | 882.4 | 1.32
313.15 K, x1 = 0.747 | 895.1 | 1.33
313.15 K, x1 = 0.8494 | 908.7 | 1.4
313.15 K, x1 = 0.9404 | 920.8 | 1.5
313.15 K, x1 = 1 | 928.8 | 1.6
318.15 K, x1 = 0.0803 | 805.7 | 1.84
318.15 K, x1 = 0.1609 | 815.7 | 1.68
318.15 K, x1 = 0.2403 | 825.6 | 1.53
318.15 K, x1 = 0.3473 | 839.1 | 1.38
318.15 K, x1 = 0.4404 | 851 | 1.29
318.15 K, x1 = 0.5619 | 866.6 | 1.21
318.15 K, x1 = 0.6501 | 878.1 | 1.19
318.15 K, x1 = 0.747 | 890.7 | 1.21
318.15 K, x1 = 0.8494 | 904.3 | 1.28
318.15 K, x1 = 0.9404 | 916.4 | 1.37
318.15 K, x1 = 1 | 924.4 | 1.46
323.15 K, x1 = 0.0803 | 801.9 | 1.65
323.15 K, x1 = 0.1609 | 811.9 | 1.52
323.15 K, x1 = 0.2403 | 821.8 | 1.4
323.15 K, x1 = 0.3473 | 835.3 | 1.27
323.15 K, x1 = 0.4404 | 847.1 | 1.19
323.15 K, x1 = 0.5619 | 862.8 | 1.21
323.15 K, x1 = 0.6501 | 874.2 | 1.107
323.15 K, x1 = 0.747 | 886.9 | 1.13
323.15 K, x1 = 0.8494 | 900.5 | 1.19
323.15 K, x1 = 0.9404 | 912.7 | 1.27
323.15 K, x1 = 1 | 920.7 | 1.34

O=C1CCCCC1 [cyclohexanone] + CCCCCCCCCCO
Conditions | mass density [kg/m3] | viscosity [mPa·s]
293.15 K, x1 = 0.0807 | 834.5 | 12.23
293.15 K, x1 = 0.1613 | 840 | 10.39
293.15 K, x1 = 0.2387 | 845.6 | 8.73
293.15 K, x1 = 0.3519 | 855.1 | 6.64
293.15 K, x1 = 0.4407 | 863.4 | 5.35
293.15 K, x1 = 0.5568 | 875.9 | 3.94
293.15 K, x1 = 0.6517 | 887.7 | 3.08
293.15 K, x1 = 0.7412 | 900.4 | 2.54
293.15 K, x1 = 0.8518 | 918.6 | 2.22
293.15 K, x1 = 0.9441 | 936.5 | 2.17
293.15 K, x1 = 1 | 948.8 | 2.3
298.15 K, x1 = 0.0807 | 830.9 | 10
298.15 K, x1 = 0.1613 | 836.4 | 8.43
298.15 K, x1 = 0.2387 | 841.8 | 7.18
298.15 K, x1 = 0.3519 | 851 | 5.67
298.15 K, x1 = 0.4407 | 859.2 | 4.69
298.15 K, x1 = 0.5568 | 871.4 | 3.56
298.15 K, x1 = 0.6517 | 883 | 2.87
298.15 K, x1 = 0.7412 | 895.4 | 2.43
298.15 K, x1 = 0.8518 | 913.3 | 2.13
298.15 K, x1 = 0.9441 | 930.9 | 2.08
298.15 K, x1 = 1 | 943.1 | 2.09
303.15 K, x1 = 0.0807 | 827.4 | 8.39
303.15 K, x1 = 0.1613 | 832.6 | 7.21
303.15 K, x1 = 0.2387 | 838.1 | 6.19
303.15 K, x1 = 0.3519 | 847.2 | 4.87
303.15 K, x1 = 0.4407 | 855.2 | 4.04
303.15 K, x1 = 0.5568 | 867.3 | 3.16
303.15 K, x1 = 0.6517 | 878.7 | 2.6
303.15 K, x1 = 0.7412 | 891 | 2.23
303.15 K, x1 = 0.8518 | 908.7 | 1.97
303.15 K, x1 = 0.9441 | 926.1 | 1.89
303.15 K, x1 = 1 | 938.2 | 1.91
308.15 K, x1 = 0.0807 | 823.9 | 7.09
308.15 K, x1 = 0.1613 | 829.1 | 6.14
308.15 K, x1 = 0.2387 | 834.5 | 5.38
308.15 K, x1 = 0.3519 | 843.4 | 4.37
308.15 K, x1 = 0.4407 | 851.4 | 3.69
308.15 K, x1 = 0.5568 | 863.3 | 2.94
308.15 K, x1 = 0.6517 | 874.6 | 2.45
308.15 K, x1 = 0.7412 | 886.7 | 2.11
308.15 K, x1 = 0.8518 | 904.2 | 1.84
308.15 K, x1 = 0.9441 | 921.5 | 1.73
308.15 K, x1 = 1 | 933.5 | 1.75
313.15 K, x1 = 0.0807 | 820.4 | 5.99
313.15 K, x1 = 0.1613 | 825.5 | 5.26
313.15 K, x1 = 0.2387 | 830.8 | 4.6
313.15 K, x1 = 0.3519 | 839.6 | 3.75
313.15 K, x1 = 0.4407 | 847.4 | 3.17
313.15 K, x1 = 0.5568 | 859.2 | 2.6
313.15 K, x1 = 0.6517 | 870.3 | 2.21
313.15 K, x1 = 0.7412 | 882.4 | 1.92
313.15 K, x1 = 0.8518 | 899.7 | 1.7
313.15 K, x1 = 0.9441 | 916.9 | 1.57
313.15 K, x1 = 1 | 928.8 | 1.6
318.15 K, x1 = 0.0807 | 816.9 | 5.08
318.15 K, x1 = 0.1613 | 821.9 | 4.45
318.15 K, x1 = 0.2387 | 827.2 | 3.86
318.15 K, x1 = 0.3519 | 835.9 | 3.15
318.15 K, x1 = 0.4407 | 843.6 | 2.69
318.15 K, x1 = 0.5568 | 855.3 | 2.19
318.15 K, x1 = 0.6517 | 866.3 | 1.88
318.15 K, x1 = 0.7412 | 878.3 | 1.67
318.15 K, x1 = 0.8518 | 895.5 | 1.51
318.15 K, x1 = 0.9441 | 912.6 | 1.44
318.15 K, x1 = 1 | 924.4 | 1.46
323.15 K, x1 = 0.0807 | 813.3 | 4.41
323.15 K, x1 = 0.1613 | 818.3 | 3.88
323.15 K, x1 = 0.2387 | 823.5 | 3.43
323.15 K, x1 = 0.3519 | 832.1 | 2.84
323.15 K, x1 = 0.4407 | 839.8 | 2.46
323.15 K, x1 = 0.5568 | 851.4 | 2.05
323.15 K, x1 = 0.6517 | 862.5 | 1.78
323.15 K, x1 = 0.7412 | 874.4 | 1.57
323.15 K, x1 = 0.8518 | 891.7 | 1.42
323.15 K, x1 = 0.9441 | 908.8 | 1.35
323.15 K, x1 = 1 | 920.7 | 1.34
